Measured values: patent US20050009840A1 (SUGEN, INC., priority 2003, published 2005)
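Note: Cell-free ELISA with plate-bound poly(Glu:Tyr 4:1) phosphorylated by GST-fused Met kinase domain plus ATP and Mn2+, phosphotyrosine detected by anti-phosphotyrosine antibody with HRP and ABTS read-out.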

Each compound was assayed against T1, Met kinase domain (GST fusion protein) (Homo sapiens, UniProt P08581) (assay: Met transphosphorylation assay (ELISA, poly(glu-tyr) substrate)). Settings: Table 2; read-out: Met IC50.
T1 construct: Purified GST fusion protein containing the Met kinase domain
T1 sequence (P08581 1078-1345 limits assumed): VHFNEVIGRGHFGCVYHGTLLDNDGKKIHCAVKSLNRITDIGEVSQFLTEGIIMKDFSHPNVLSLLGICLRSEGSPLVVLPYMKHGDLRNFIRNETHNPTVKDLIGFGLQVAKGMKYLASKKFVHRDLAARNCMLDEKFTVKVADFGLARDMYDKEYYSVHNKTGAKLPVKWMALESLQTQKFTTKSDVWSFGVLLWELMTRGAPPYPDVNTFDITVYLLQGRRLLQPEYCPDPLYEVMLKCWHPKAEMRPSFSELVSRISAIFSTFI
Type: biochemical
In the case of `CC(Oc1cc(-c2cccc(C(=O)NCCN3CCCC3)c2)cnc1N)c1c(Cl)ccc(F)c1Cl` (stereo not shown) [Example I-319, 3-{6-Amino-5-[1-(2,6-dichloro-3-fluoro-phenyl)-ethoxy]-pyridin-3-yl}-N-(2-pyrrolidin-1-yl-ethyl)-benzamide], the IC50 is reported as 100 nM.
`CC(Oc1cc(-c2cccc(C(=O)NCCCN3CCCC3)c2)cnc1N)c1c(Cl)ccc(F)c1Cl` (stereo not shown) [Example I-320, 3-{6-Amino-5-[1-(2,6-dichloro-3-fluoro-phenyl)-ethoxy]-pyridin-3-yl}-N-(3-pyrrolidin-1-yl-propyl)-benzamide] showed an IC50 of 130 nM.
With `CC(Oc1cc(-c2cccc(C(=O)NCCN3CCOCC3)c2)cnc1N)c1c(Cl)ccc(F)c1Cl` (stereo not shown) [Example I-321, 3-{6-Amino-5-[1-(2,6-dichloro-3-fluoro-phenyl)-ethoxy]-pyridin-3-yl}-N-(2-morpholin-4-yl-ethyl)-benzamide] the IC50 was 180 nM.
`CC(Oc1cc(-c2cccc(C(=O)N3CCC(N4CCCC4)CC3)c2)cnc1N)c1c(Cl)ccc(F)c1Cl` (stereo not shown) [Example I-322, (3-{6-Amino-5-[1-(2,6-dichloro-3-fluoro-phenyl)-ethoxy]-pyridin-3-yl}-phenyl)-(4-pyrrolidin-1-yl-piperidin-1-yl)-methanone] showed an IC50 of 71 nM.
Work on `CCN(CC)CCS(=O)(=O)Nc1ccc(-c2cnc(N)c(OC(C)c3c(Cl)ccc(F)c3Cl)c2)cc1` (stereo not shown) [Example I-323, 2-Diethylamino-ethanesulfonic acid (4-{6-amino-5-[1-(2,6-dichloro-3-fluoro-phenyl)-ethoxy]-pyridin-3-yl}-phenyl)-amide] yielded an IC50 of 80 nM.
`CC(Oc1cc(-c2ccc(NS(=O)(=O)CCN3CCCCC3)cc2)cnc1N)c1c(Cl)ccc(F)c1Cl` (stereo not shown) [Example I-325] gave an IC50 of 89 nM.
For `CC(Oc1cc(-c2ccc(NS(=O)(=O)CCNCC3CC3)cc2)cnc1N)c1c(Cl)ccc(F)c1Cl` (stereo not shown) [Example I-326, 2-(Cyclopropylmethyl-amino)-ethanesulfonic acid (4-{6-amino-5-[1-(2,6-dichloro-3-fluoro-phenyl)-ethoxy]-pyridin-3-yl}-phenyl)-amide], the IC50 was 75 nM.
Compound `CC(Oc1cc(-c2ccc(NS(=O)(=O)CCN3CC[C@@H](O)C3)cc2)cnc1N)c1c(F)ccc(F)c1Cl` (stereo partly shown) [Example I-327] has an IC50 of 93 nM.
Work on `CC(Oc1cc(-c2ccc(NS(=O)(=O)CCNC3CC3)cc2)cnc1N)c1c(F)ccc(F)c1Cl` (stereo not shown) [Example I-328, 2-Cyclopropylamino-ethanesulfonic acid (4-{6-amino-5-[1-(2-chloro-3,6-difluoro-phenyl)-ethoxy]-pyridin-3-yl}-phenyl)-amide] yielded an IC50 of 160 nM.
`CCN(CC)CCS(=O)(=O)Nc1ccc(-c2cnc(N)c(OC(C)c3c(F)ccc(F)c3Cl)c2)cc1` (stereo not shown) [Example I-329, 2-Diethylamino-ethanesulfonic acid (4-{6-amino-5-[1-(2-chloro-3,6-difluoro-phenyl)-ethoxy]-pyridin-3-yl}-phenyl)-amide] showed an IC50 of 95 nM.
In the case of `CC(Oc1cc(-c2ccc(C(=O)NCCN3CCOCC3)cc2)cnc1N)c1c(F)ccc(F)c1Cl` (stereo not shown) [Example I-331, 4-{6-Amino-5-[1-(2-chloro-3,6-difluoro-phenyl)-ethoxy]-pyridin-3-yl}-N-(2-morpholin-4-yl-ethyl)-benzamide], the IC50 is reported as 130 nM.
`CC(Oc1cc(-c2ccc(C(=O)NC3CCN(C)CC3)cc2)cnc1N)c1c(F)ccc(F)c1Cl` (stereo not shown) [Example I-332, 4-{6-Amino-5-[1-(2-chloro-3,6-difluoro-phenyl)-ethoxy]-pyridin-3-yl}-N-(1-methyl-piperidin-4-yl)-benzamide] showed an IC50 of 79 nM.
For `CC(Oc1cc(-c2ccc(C(=O)N3CC[C@@H](N)C3)cc2)cnc1N)c1c(F)ccc(F)c1Cl` (stereo partly drawn) [Example I-334, (4-{6-Amino-5-[1-(2-chloro-3,6-difluoro-phenyl)-ethoxy]-pyridin-3-yl}-phenyl)-((R)-3-amino-pyrrolidin-1-yl)-methanone], the IC50 was 89 nM.
`CC(Oc1cc(-c2ccc(C(=O)N3C[C@@H](C)N[C@@H](C)C3)cc2)cnc1N)c1c(F)ccc(F)c1Cl` (stereo partly drawn) [Example I-335, (4-{6 Amino-5-[1-(2-chloro-3,6-difluoro-phenyl)-ethoxy]-pyridin-3-yl}-phenyl)-((3R,5S)-3,5-dimethyl-piperazin-1-yl)-methanone] showed an IC50 of 90 nM.
Work on `CC(Oc1cc(-c2ccc(C(=O)NCCCN3CCCC3)cc2)cnc1N)c1c(F)ccc(F)c1Cl` (stereo not shown) [Example I-336, 4-{6-Amino-5-[1-(2-chloro-3,6-difluoro-phenyl)-ethoxy]-pyridin-3-yl}-N-(3-pyrrolidin-1-yl-propyl)-benzamide] yielded an IC50 of 90 nM.
In the case of `CC(Oc1cc(-c2ccc(C(=O)N3CCN(C)CC3)cc2)cnc1N)c1c(F)ccc(F)c1Cl` (stereo not shown) [Example I-338, (4-{6-Amino-5-[1-(2-chloro-3,6-difluoro-phenyl)-ethoxy]-pyridin-3-yl}-phenyl)-(4-methyl-piperazin-1-yl)-methanone], the IC50 is reported as 77 nM.
For `CC(Oc1cc(-c2ccc(C(=O)NCCN3CCCC3)cc2)cnc1N)c1c(F)ccc(F)c1Cl` (stereo not shown) [Example I-340, 4-{6-Amino-5-[1-(2-chloro-3,6-difluoro-phenyl)-ethoxy]-pyridin-3-yl}-N-(2-pyrrolidin-1-yl-ethyl)-benzamide], the IC50 was 86 nM.
In the case of `CC(Oc1cc(-c2ccc(C(=O)N3CC[C@H](N)C3)cc2)cnc1N)c1c(F)ccc(F)c1Cl` (stereo partly drawn) [Example I-341, (4-{6-Amino-5-[1-(2-chloro-3,6-difluoro-phenyl)-ethoxy]-pyridin-3-yl}-phenyl)-((S)-3-amino-pyrrolidin-1-yl)-methanone], the IC50 is reported as 75 nM.
`CC(Oc1cc(-c2cccc(C(=O)N3C[C@@H](C)N[C@@H](C)C3)c2)cnc1N)c1c(F)ccc(F)c1Cl` (stereo partly shown) [Example I-343] was tested, and the IC50 was 160 nM.
Compound `CC(Oc1cc(-c2cccc(C(=O)N3CC[C@@H](N)C3)c2)cnc1N)c1c(F)ccc(F)c1Cl` (stereo partly drawn) [Example I-344, (3-{6-Amino-5-[1-(2-chloro-3,6-difluoro-phenyl)-ethoxy]-pyridin-3-yl}-phenyl)-((R)-3-amino-pyrrolidin-1-yl)-methanone] has an IC50 of 120 nM.
With `CC(Oc1cc(-c2cccc(C(=O)NC3CCN(C)CC3)c2)cnc1N)c1c(F)ccc(F)c1Cl` (stereo not shown) [Example I-345, 3-{6-Amino-5-[1-(2-chloro-3,6-difluoro-phenyl)-ethoxy]-pyridin-3-yl}-N-(1-methyl-piperidin-4-yl)-benzamide] the IC50 was 200 nM.
In the case of `CC(Oc1cc(-c2cccc(C(=O)N3CCN(C)CC3)c2)cnc1N)c1c(F)ccc(F)c1Cl` (stereo not shown) [Example I-346, (3-{6-Amino-5-[1-(2-chloro-3,6-difluoro-phenyl)-ethoxy]-pyridin-3-yl}-phenyl)-(4-methyl-piperazin-1-yl)-pnl methanone], the IC50 is reported as 190 nM.
Compound `CC(Oc1cc(-c2cccc(C(=O)NCCCN3CCCC3)c2)cnc1N)c1c(F)ccc(F)c1Cl` (stereo not shown) [Example I-347, 3-{6-Amino-5-[1-(2-chloro-3,6-difluoro-phenyl)-ethoxy]-pyridin-3-yl}-N-(3-pyrrolidin-1-yl-propyl)-benzamide] has an IC50 of 210 nM.
`CC(Oc1cc(-c2cccc(C(=O)NCCN3CCCC3)c2)cnc1N)c1c(F)ccc(F)c1Cl` (stereo not shown) [Example I-348, 3-{6-Amino-5-[1-(2-chloro-3,6-difluoro-phenyl)-ethoxy]-pyridin-3-yl}-N-(2-pyrrolidin-1-yl-ethyl)-benzamide] gave an IC50 of 200 nM.
`CC(Oc1cc(-c2cccc(C(=O)N3CC[C@H](N)C3)c2)cnc1N)c1c(F)ccc(F)c1Cl` (stereo partly drawn) [Example I-349, (3-{6-Amino-5-[1-(2-chloro-3,6-difluoro-phenyl)-ethoxy]-pyridin-3-yl}-phenyl)-((S)-3-amino-pyrrolidin-1-yl)-methanone] showed an IC50 of 130 nM.
